Test results as given in article PMC11831560, “Development of the Pyrido[2,3-d]pyrimidin-7(8H)-one Scaffold toward Potent and Selective NUAK1 Inhibitors” (ACS Medicinal Chemistry Letters, 2025).

Columns and labels:
Test in all cases: Kinase panel radiometric filter binding (33P-ATP)
Assay type in all cases: biochemical
Set-up in all cases: dose or concentration left out as unconfirmed
[1] = biological target: ABL (Homo sapiens, UniProt P00519)
Method: (§1) Table S4: AMPKA kinase activity data (ADP-Glo assay)
(§2) Compound pIC50 (Fold selectivity
(§3) Table S5. Kinase selectivity screening for 9 and 24 at 1 µM against a general kinase panel of 140 targets
(§4) in radiometric filter binding assay using 33P-γ−ATP at the MRC PPU International Centre for Kinase
(§5) Profiling, University of Dundee. pIC50 values were determined for compounds with <20% activity
(§6) Kinase activity s.d. pIC50 activity s.d. pIC50

[2] = biological target: ASK1 (Homo sapiens, UniProt Q99683)
Method: as §1, §2, §3, §4, §5, §6

[3] = biological target: Aurora A (Homo sapiens, UniProt O14965)
Method: as §1, §2, §3, §4, §5, §6

[4] = biological target: BRSK1 (Homo sapiens, UniProt Q8TDC3)
Method: as §1, §2, §3, §4, §5, §6

[5] = biological target: BRSK2 (Homo sapiens, UniProt Q8IWQ3)
Chain of BRSK2 (Q8IWQ3 whole entry): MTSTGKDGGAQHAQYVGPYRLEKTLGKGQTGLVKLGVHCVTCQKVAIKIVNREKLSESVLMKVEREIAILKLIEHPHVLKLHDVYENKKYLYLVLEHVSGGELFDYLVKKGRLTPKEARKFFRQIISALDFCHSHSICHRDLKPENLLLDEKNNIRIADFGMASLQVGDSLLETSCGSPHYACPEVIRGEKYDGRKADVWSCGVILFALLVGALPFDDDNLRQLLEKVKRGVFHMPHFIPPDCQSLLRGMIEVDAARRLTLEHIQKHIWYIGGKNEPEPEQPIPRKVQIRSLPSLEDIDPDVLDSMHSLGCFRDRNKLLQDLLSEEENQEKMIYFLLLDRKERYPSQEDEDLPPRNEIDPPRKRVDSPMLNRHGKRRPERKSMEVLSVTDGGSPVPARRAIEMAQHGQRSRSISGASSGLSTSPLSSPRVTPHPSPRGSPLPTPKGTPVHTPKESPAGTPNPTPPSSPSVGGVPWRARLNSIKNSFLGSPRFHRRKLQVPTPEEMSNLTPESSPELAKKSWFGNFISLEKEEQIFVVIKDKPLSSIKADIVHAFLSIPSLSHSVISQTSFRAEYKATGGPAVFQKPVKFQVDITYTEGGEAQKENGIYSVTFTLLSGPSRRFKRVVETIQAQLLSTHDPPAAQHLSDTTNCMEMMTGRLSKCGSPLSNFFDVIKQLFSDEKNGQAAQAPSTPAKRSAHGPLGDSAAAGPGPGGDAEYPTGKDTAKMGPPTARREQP
Method: as §1, §2, §3, §4, §5, §6

[6] = biological target: CDK9-Cyclin T1 (Homo sapiens, UniProt P50750)
Method: as §1, §2, §3, §4, §5, §6

[7] = biological target: CK1γ2 (Homo sapiens, UniProt P78368)
Chain of CK1γ2 (P78368 whole entry): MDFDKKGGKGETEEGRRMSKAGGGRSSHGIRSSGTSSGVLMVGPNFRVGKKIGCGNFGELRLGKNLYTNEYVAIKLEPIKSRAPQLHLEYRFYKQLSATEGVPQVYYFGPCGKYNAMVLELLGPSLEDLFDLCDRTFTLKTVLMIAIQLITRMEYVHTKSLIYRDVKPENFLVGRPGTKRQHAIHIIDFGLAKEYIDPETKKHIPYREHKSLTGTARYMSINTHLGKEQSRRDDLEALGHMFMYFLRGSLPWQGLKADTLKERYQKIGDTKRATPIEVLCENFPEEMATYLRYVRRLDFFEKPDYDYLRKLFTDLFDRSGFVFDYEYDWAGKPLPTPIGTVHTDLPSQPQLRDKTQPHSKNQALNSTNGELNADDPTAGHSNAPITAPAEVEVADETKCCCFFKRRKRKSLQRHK
Method: as §1, §2, §3, §4, §5, §6

[8] = biological target: CK2 (Homo sapiens, UniProt P68400)
Method: as §1, §2, §3, §4, §5, §6

[9] = biological target: EF2K (Homo sapiens, UniProt O00418)
Method: as §1, §2, §3, §4, §5, §6

[10] = biological target: EPH-B3 (Homo sapiens, UniProt P54753)
Method: as §1, §2, §3, §4, §5, §6

[11] = biological target: HER4 (Homo sapiens, UniProt Q15303)
Method: as §1, §2, §3, §4, §5, §6

[12] = biological target: HIPK2 (Homo sapiens, UniProt Q9H2X6)
Chain of HIPK2 (Q9H2X6 whole entry): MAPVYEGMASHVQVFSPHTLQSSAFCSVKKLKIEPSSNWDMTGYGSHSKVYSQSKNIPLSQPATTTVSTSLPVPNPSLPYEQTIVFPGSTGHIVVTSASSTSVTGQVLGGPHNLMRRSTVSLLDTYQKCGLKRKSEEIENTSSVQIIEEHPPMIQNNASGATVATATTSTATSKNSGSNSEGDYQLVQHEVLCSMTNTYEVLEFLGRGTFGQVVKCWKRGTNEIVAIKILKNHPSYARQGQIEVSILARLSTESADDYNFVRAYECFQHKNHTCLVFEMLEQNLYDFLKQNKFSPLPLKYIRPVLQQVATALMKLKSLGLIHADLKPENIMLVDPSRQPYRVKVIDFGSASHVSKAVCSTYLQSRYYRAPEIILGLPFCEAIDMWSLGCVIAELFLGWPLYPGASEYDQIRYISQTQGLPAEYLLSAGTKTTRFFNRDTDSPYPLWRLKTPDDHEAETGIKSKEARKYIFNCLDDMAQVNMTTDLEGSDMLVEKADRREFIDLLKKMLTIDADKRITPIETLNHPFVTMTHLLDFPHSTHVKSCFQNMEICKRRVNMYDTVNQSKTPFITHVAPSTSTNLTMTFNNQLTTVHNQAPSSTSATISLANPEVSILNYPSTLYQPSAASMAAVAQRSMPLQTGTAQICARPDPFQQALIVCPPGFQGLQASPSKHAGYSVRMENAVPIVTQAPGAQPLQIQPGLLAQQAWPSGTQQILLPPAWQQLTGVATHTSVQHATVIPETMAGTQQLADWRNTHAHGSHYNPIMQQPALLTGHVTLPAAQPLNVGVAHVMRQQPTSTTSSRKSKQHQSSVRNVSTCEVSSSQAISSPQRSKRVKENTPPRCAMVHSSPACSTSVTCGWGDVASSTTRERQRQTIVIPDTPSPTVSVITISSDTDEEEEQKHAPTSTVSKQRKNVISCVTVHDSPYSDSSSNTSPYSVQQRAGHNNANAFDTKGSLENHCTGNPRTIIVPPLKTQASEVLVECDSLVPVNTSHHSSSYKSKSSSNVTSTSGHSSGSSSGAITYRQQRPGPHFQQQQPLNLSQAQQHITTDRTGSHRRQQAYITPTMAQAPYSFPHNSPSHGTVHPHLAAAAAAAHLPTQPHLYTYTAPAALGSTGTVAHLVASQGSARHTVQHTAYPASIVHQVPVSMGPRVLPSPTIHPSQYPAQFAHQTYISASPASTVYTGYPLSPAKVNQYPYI
Method: as §1, §2, §3, §4, §5, §6

[13] = biological target: HIPK3 (Homo sapiens, UniProt Q9H422)
Method: as §1, §2, §3, §4, §5, §6

[14] = biological target: IKKb (Homo sapiens, UniProt O14920)
Method: as §1, §2, §3, §4, §5, §6

[15] = biological target: IRAK4 (Homo sapiens, UniProt Q9NWZ3)
Method: as §1, §2, §3, §4, §5, §6

[16] = biological target: JNK1 (Homo sapiens, UniProt P45983)
Method: as §1, §2, §3, §4, §5, §6

[17] = biological target: JNK2 (Homo sapiens, UniProt P45984)
Method: as §1, §2, §3, §4, §5, §6

[18] = biological target: JNK3 (Homo sapiens, UniProt P53779)
Chain of JNK3 (P53779 whole entry): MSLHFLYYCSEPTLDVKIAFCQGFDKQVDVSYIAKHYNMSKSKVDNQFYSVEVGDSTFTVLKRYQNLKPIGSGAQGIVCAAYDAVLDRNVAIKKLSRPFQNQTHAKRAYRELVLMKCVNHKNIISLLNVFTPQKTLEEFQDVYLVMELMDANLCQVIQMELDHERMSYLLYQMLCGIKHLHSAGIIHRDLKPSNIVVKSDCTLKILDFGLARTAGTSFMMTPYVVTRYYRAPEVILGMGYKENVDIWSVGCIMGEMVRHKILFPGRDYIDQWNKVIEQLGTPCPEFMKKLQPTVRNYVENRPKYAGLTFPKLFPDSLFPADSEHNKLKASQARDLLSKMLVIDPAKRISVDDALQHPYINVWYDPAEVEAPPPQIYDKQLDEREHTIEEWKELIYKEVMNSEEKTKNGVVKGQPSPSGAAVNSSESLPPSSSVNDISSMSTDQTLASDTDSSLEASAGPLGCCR
Method: as §1, §2, §3, §4, §5, §6

[19] = biological target: LKB1 (Homo sapiens, UniProt Q15831)
Method: as §1, §2, §3, §4, §5, §6

[20] = biological target: T1, MARK3 (Homo sapiens, UniProt P27448)
T1 construct: purchased MRC PPU
Method: as §1, §2, §3, §4, §5, §6

[21] = biological target: MEKK1 (Homo sapiens, UniProt Q13233)
Method: as §1, §2, §3, §4, §5, §6

[22] = biological target: MLK1 (Homo sapiens, UniProt P80192)
Method: as §1, §2, §3, §4, §5, §6

[23] = biological target: MNK1 (Homo sapiens, UniProt Q9BUB5)
Chain of MNK1 (Q9BUB5 whole entry): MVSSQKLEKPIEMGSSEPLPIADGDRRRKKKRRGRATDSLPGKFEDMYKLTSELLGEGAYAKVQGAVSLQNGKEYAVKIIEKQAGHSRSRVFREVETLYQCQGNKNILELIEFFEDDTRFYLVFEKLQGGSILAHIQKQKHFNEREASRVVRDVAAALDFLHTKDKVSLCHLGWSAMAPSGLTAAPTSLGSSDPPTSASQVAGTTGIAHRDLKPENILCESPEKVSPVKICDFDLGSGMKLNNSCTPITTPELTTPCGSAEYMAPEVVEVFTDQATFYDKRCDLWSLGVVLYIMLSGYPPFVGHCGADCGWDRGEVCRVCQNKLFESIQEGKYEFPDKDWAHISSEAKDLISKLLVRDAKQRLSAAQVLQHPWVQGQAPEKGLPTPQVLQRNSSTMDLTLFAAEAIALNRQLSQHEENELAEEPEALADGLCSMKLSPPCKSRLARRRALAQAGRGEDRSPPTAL
Method: as §1, §2, §3, §4, §5, §6

[24] = biological target: OSR1 (Homo sapiens, UniProt O95747)
Method: as §1, §2, §3, §4, §5, §6

[25] = test system: PHK
Method: as §1, §2, §3, §4, §5, §6

[26] = biological target: PIM1 (Homo sapiens, UniProt P11309)
Method: as §1, §2, §3, §4, §5, §6

[27] = biological target: PKCz (Homo sapiens, UniProt Q05513)
Method: as §1, §2, §3, §4, §5, §6

[28] = biological target: PKD1 (Homo sapiens, UniProt Q15139)
Chain of PKD1 (Q15139 whole entry): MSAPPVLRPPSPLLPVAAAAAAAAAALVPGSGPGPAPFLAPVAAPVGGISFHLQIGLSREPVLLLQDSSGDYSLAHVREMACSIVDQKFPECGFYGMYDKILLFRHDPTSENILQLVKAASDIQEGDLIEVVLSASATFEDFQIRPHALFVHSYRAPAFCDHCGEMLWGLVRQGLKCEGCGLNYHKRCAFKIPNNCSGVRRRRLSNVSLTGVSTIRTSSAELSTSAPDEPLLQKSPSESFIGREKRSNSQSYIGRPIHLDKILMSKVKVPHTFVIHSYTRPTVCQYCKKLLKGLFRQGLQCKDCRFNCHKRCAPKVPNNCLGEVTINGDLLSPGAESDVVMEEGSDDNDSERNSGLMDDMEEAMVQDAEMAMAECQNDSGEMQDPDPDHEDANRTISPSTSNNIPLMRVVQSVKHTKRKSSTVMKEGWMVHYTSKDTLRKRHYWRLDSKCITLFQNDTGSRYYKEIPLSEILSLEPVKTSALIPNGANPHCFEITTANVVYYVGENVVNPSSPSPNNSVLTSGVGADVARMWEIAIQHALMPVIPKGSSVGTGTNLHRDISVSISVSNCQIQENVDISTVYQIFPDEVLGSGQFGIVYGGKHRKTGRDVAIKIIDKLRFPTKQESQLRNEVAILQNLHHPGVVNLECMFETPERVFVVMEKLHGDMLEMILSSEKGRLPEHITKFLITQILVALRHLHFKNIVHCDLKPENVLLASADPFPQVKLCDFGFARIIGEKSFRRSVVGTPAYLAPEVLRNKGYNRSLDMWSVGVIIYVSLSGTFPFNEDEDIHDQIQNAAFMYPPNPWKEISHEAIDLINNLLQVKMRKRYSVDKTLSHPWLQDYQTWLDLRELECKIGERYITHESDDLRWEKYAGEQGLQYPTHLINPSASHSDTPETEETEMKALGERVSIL
Method: as §1, §2, §3, §4, §5, §6

[29] = biological target: ROCK 2 (Homo sapiens, UniProt O75116)
Method: as §1, §2, §3, §4, §5, §6

[30] = biological target: S6K1 (Homo sapiens, UniProt P23443)
Method: as §1, §2, §3, §4, §5, §6

[31] = biological target: Src (Homo sapiens, UniProt P12931)
Method: as §1, §2, §3, §4, §5, §6

[32] = biological target: TTBK1 (Homo sapiens, UniProt Q5TCY1)
Method: as §1, §2, §3, §4, §5, §6

[33] = biological target: TTK (Homo sapiens, UniProt P33981)
Chain of TTK (P33981 whole entry): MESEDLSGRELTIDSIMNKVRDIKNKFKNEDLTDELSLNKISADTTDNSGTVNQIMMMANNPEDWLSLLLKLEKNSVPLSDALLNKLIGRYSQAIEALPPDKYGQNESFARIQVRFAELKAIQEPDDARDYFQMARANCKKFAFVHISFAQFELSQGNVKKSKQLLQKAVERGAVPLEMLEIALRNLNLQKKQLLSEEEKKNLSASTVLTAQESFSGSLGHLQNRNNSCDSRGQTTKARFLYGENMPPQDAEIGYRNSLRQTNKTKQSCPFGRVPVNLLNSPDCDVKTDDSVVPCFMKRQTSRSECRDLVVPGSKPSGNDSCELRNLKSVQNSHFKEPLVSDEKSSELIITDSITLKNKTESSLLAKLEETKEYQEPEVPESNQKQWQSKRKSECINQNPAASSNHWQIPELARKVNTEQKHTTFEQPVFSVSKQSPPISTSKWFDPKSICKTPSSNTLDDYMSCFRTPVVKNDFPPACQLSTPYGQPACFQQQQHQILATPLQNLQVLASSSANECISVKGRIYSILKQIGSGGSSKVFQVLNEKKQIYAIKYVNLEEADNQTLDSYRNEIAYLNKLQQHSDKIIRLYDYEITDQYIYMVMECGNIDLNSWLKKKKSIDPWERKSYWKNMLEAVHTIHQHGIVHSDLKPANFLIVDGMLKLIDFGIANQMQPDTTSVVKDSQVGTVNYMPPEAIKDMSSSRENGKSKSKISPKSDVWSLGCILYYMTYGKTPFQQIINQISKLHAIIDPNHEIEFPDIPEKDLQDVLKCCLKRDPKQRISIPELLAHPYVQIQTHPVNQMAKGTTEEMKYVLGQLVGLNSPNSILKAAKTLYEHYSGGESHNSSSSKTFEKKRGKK
Method: as §1, §2, §3, §4, §5, §6

[34] = biological target: ULK1 (Homo sapiens, UniProt O75385)
Method: as §1, §2, §3, §4, §5, §6

[35] = biological target: p38a MAPK (Homo sapiens, UniProt Q16539)
Method: as §1, §2, §3, §4, §5, §6

Compound | % activity remaining [1] | % activity remaining [2] | % activity remaining [3] | % activity remaining [4] | % activity remaining [5] | % activity remaining [6] | % activity remaining [7] | % activity remaining [8] | % activity remaining [9] | % activity remaining [10] | % activity remaining [11] | % activity remaining [12] | % activity remaining [13] | % activity remaining [14] | % activity remaining [15] | % activity remaining [16] | % activity remaining [17] | % activity remaining [18] | % activity remaining [19] | % activity remaining [20] | other results
CN1C2CC1CN(c1ccc(Nc3ncc4ccn(CC5CCOCC5)c4n3)cc1)C2 [Compound 24] | 56% | 99% | 54% | 75% | 75% | 56% | 107% | 96% | 102% | 77% | 74% | 85% | 73% | 103% | 71% | 97% | 88% | 107% | 100% | 104% | % activity remaining [21]: 63%; % activity remaining [22]: 33%; % activity remaining [23]: 72%; % activity remaining [24]: 70%; % activity remaining [25]: 92%; % activity remaining [26]: 84%; % activity remaining [27]: 118%; % activity remaining [28]: 54%; % activity remaining [29]: 78%; % activity remaining [30]: 78%; % activity remaining [31]: 84%; % activity remaining [32]: 103%; % activity remaining [33]: 99%; % activity remaining [34]: 77%; % activity remaining [35]: 93%
Cc1cc(=O)n(C2CCCC2)c2nc(Nc3ccc(N4CC5CC(C4)N5C)cc3)ncc12 [Compound 9] | 41% | 97% | 52% | 81% | 90% | 67% | 34% | 108% | 72% | 95% | 118% | 54% | 112% | 93% | 100% | 47% | 35% | 30% | 104% | 35% | % activity remaining [21]: 85%; % activity remaining [22]: 21%; % activity remaining [23]: 96%; % activity remaining [24]: 67%; % activity remaining [25]: 56%; % activity remaining [26]: 90%; % activity remaining [27]: 110%; % activity remaining [28]: 20%; % activity remaining [29]: 56%; % activity remaining [30]: 85%; % activity remaining [31]: 53%; % activity remaining [32]: 92%; % activity remaining [33]: 54%; % activity remaining [34]: 23%; % activity remaining [35]: 92%
